Experimental findings from patent US20260284011A1, “COMPOUNDS FOR RESTORING SUSCEPTIBILITY TO BETA-LACTAM ANTIBIOTICS” (UNIVERSITY OF NOTRE DAME DU LAC, priority 2023, published 2026) are described below.

Molecules are shown by their SMILES.

Test [1] relates to various MRSA strains (NRS21, NRS70, NRS382, NRS404, HFH29568, HFH30495). Put plainly: Time-kill assays (FIG. 6). The format is cell-based, Staphylococcus aureus. Particulars: at 24 h. The procedure:
Time-kill assay. MRSA strains (NRS21, NRS70, NRS382, NRS404, HFH 29568, and HFH 30495) were grown overnight on tryptic soy agar plate. Bacteria were diluted in Muller-Hinton broth containing 2% NaCl to […] CFU·mL^−1. […] For MEM and CPT, cation-adjusted Muller-Hinton broth without 2% NaCl was used. Aliquots were taken at 0, 3, 6, 9, 12, and 24 h and were diluted serially for bacterial counts. The assay was done in triplicate.

In test [2] the test system is LIM2 (NRS36), MRSA, SCCmec I, bla +. Put plainly: MIC determination and potentiation assay (microdilution broth). As to conditions: Staphylococcus aureus; LIM2 (NRS36); agent alone; read-out: MIC. It is filed as cell-based, Staphylococcus aureus. The procedure: (§1) MICs were determined by the microdilution broth method following the Clinical & Laboratory Standards Institute (CLSI) guidelines. […] Experiments were performed in triplicate in 96-well plates with 5×10^5 CFU·mL^−1 of bacteria. […] The MIC was the concentration for which bacterial growth was not observed.

Test [3] concerns HIP07920 (NRS21), MRSA/VISA, SCCmec IV, bla +. The description is as above. It is filed as cell-based, Staphylococcus aureus. As to conditions: Staphylococcus aureus; HIP07920 (NRS21); agent alone. Here is the method:
as §1

For test [4], the system named is HIP 133170 (VRS3a), MRSA/VRSA, SCCmec IV, bla +. The test is described as above. As to conditions: Staphylococcus aureus; HIP 133170 (VRS3a); agent alone; read-out: MIC. It is filed as cell-based, Staphylococcus aureus. Here is the method:
as §1

The subject of test [5] is HIP15178 (VRS5), MRSA/VRSA, SCCmec II, bla +. The test is described as above. Particulars: Staphylococcus aureus; HIP15178 (VRS5); agent alone; read-out: MIC. It is filed as cell-based, Staphylococcus aureus. The procedure: as §1
Test [6] has as its system COL (NRS100), MRSA, SCCmec I, bla −. The description is as above. As to conditions: Staphylococcus aureus; COL (NRS100); agent alone; read-out: MIC. It is filed as cell-based, Staphylococcus aureus. The procedure:
as §1

In test [7] the test system is NTCT 8325 (NRS77), MSSA, bla −. Described as above. The format is cell-based, Staphylococcus aureus. Particulars: Staphylococcus aureus; NTCT 8325 (NRS77); agent alone; read-out: MIC. Here is the method:
as §1

The next test concerns ATCC 29213, MSSA, bla +. Described as above. The format is cell-based, Staphylococcus aureus. As to conditions: Staphylococcus aureus; ATCC 29213; agent alone; read-out: MIC. Here is the method: as §1
Test [8] has as its system JE2, MRSA, SCCmec IV, bla −. The description is as above. Particulars: Staphylococcus aureus, MRSA, agent alone. The format is cell-based, Staphylococcus aureus. The procedure:
as §1

For test [9], the system named is HIP 07930 (NRS22), MRSA/VISA, SCCmec II, bla +. The test is described as above. The format is cell-based. As to conditions: Staphylococcus aureus; HIP 07930 (NRS22); agent alone; read-out: MIC. Here is the method: as §1
For test [10], the system named is SR4035, MRSA, SCCmec IV, bla +. The test is described as above. As to conditions: Staphylococcus aureus, SR4035, agent alone, read-out: MIC. It is filed as cell-based. Here is the method: as §1
Test [11] concerns CO-23 (NRS661), MRSA, SCCmec II, bla +. The test is described as above. The format is cell-based. Particulars: Staphylococcus aureus; CO-23 (NRS661); agent alone; read-out: MIC. The procedure: as §1
For test [12], the system named is CA-347 (NRS648), MRSA, SCCmec II, bla +. Described as above. The format is cell-based. As to conditions: Staphylococcus aureus; CA-347 (NRS648); agent alone; read-out: MIC. The procedure:
as §1

The test system of test [13] is ATCC 33591, MRSA, SCCmec III, bla +. The test is described as above. The format is cell-based. As to conditions: Staphylococcus aureus; ATCC 33591; agent alone; read-out: MIC. Here is the method:
as §1

Test [14] concerns HI049, MRSA, USA300 clone, SCCmec IV, bla +. Described as above. The format is cell-based. As to conditions: Staphylococcus aureus, agent alone. The procedure:
as §1

For test [15], the system named is NY-315 (NRS715), MRSA, SCCmec II, bla +. Described as above. It is filed as cell-based. Particulars: Staphylococcus aureus; NY-315 (NRS715); agent alone; read-out: MIC. Here is the method: as §1
For test [16], the system named is CM05, MRSA, SCCmec I, bla +. Described as above. The format is cell-based. Particulars: Staphylococcus aureus. The procedure:
as §1

The test system of test [17] is MSSA476 (NRS72), MSSA, bla +. The test is described as above. The format is cell-based. Particulars: Staphylococcus aureus; MSSA476 (NRS72); agent alone; read-out: MIC. The procedure: as §1
Test [18] concerns CA-127 (NRS643), MRSA, SCCmec IV, bla +. Described as above. It is filed as cell-based. Particulars: Staphylococcus aureus; CA-127 (NRS643); agent alone; read-out: MIC. Here is the method: as §1
For test [19], the system named is HFH 29568, MRSA, USA300 clone, SCCmec IV, bla +. The description is as above. The format is cell-based. Particulars: Staphylococcus aureus; HFH 29568; agent alone; read-out: MIC. The procedure:
as §1

Test [20] deals with LinR#12 (NRS119), MRSA, SCCmec IV, bla +. The test is described as above. Particulars: Staphylococcus aureus; LinR#12 (NRS119); agent alone; read-out: MIC. It is filed as cell-based. The procedure: as §1
Test [21] relates to HT 20020320 (NRS245), MRSA, SCCmec IV, bla +. Described as above. It is filed as cell-based. As to conditions: Staphylococcus aureus; HT 20020320 (NRS245); agent alone; read-out: MIC. The procedure: as §1
Test [22] has as its system MN-082 (NRS701), MRSA, SCCmec II, bla +. The test is described as above. The format is cell-based. Particulars: Staphylococcus aureus; MN-082 (NRS701); agent alone; read-out: MIC. The procedure:
as §1

The test system of test [23] is M1712 (NRS127), MRSA, SCCmec II, bla +. The test is described as above. It is filed as cell-based. As to conditions: Staphylococcus aureus; M1712 (NRS127); agent alone; read-out: MIC. The procedure:
as §1

Take `C[C@@H](O)[C@H]1C(=O)N2C(C(=O)O)=C(S[C@@H]3CN[C@H](C(=O)N(C)C)C3)[C@H](C)[C@H]12` [MEM, meropenem]: in test [1], the “reduction in bacterial growth by itself” value is listed as “Neither OXA, MEM, CPT, or compound 4 by itself showed reduction in bacterial growth”. The MIC in test [2] amounted to 8 µg/mL; in [3] it was 8 µg/mL; in test [4], 16 µg/mL; in [5] it was 8 µg/mL; in test [6] it was 16 µg/mL; in test [7], 0.13 µg/mL. Moreover, the MIC in the test with ATCC 29213, MSSA, bla + worked out at 0.13 µg/mL; in [8] it was 4 µg/mL; in test [9], 8 µg/mL; in test [10], 16 µg/mL; in test [11] it was 32 µg/mL; in test [12], 16 µg/mL. The minimal inhibitory concentration (MIC) was 16 µg/mL in test [13]; 8 µg/mL in [14]; 32 µg/mL in test [15]; over 32 µg/mL in [16]; 0.13 µg/mL in test [17]; 4 µg/mL in test [18]. The MIC in [19] came out at 16 µg/mL; in test [20] it was 32 µg/mL; in test [21], 8 µg/mL; in test [22], 32 µg/mL; in [23] it was 16 µg/mL.
